Measured values published in patent publication US20100093723A1, “HETEROCYCLYL AND CYCLOALKYL SUBSTITUTED THIENO[2,3 d]PYRIMIDINE AND THEIR USE AS ADENOSINE A2a RECEPTOR ANTAGONISTS” (priority 2008, published 2010).

Tests used:
[1] = molecular target: T1, human adenosine A1 receptor (Homo sapiens, UniProt P30542); assay: Adenosine A1 Receptor Functional Assay (A1GAL2); type: cell-based; conditions: CHO-K1 cells overexpressing human A1 receptor, cAMP inducible beta-galactosidase reporter, 4 nM r-PIA/1 uM Forskolin agonist challenge; read-out: A1GAL2_v3 Ki
T1 construct: expressed in transfected cells; host or cells: CHO-K1
T1 sequence (P30542 1-326): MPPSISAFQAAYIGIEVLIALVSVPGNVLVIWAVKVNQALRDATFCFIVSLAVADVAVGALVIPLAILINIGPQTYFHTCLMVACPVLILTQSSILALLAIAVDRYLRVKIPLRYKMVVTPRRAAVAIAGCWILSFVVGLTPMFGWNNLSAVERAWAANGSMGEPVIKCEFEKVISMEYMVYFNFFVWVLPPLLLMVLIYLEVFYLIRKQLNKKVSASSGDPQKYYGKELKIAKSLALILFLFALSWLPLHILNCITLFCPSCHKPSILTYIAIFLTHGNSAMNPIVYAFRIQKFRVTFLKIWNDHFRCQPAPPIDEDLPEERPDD
Method: Adenosine A1 Receptor Functional Assay (A1GAL2)
(§1) To initiate the functional assay, cryopreserved CHO-K1 cells overexpressing the human adenosine A1 receptor and containing a cAMP inducible beta-galactosidase reporter gene were thawed, centrifuged, DMSO containing media removed, and then seeded with fresh culture media into clear 384-well tissue culture treated plates (BD #353961) at a concentration of 10K cells/well. Prior to assay, these plates were cultured for two days at 37° C., 5% CO2, 90% Rh. On the day of the functional assay, culture media was removed and replaced with 45 uL assay medium (Hams/F-12 Modified (Mediatech # 10-080CV) supplemented w/0.1% BSA). Test compounds were diluted and 11 point curves created at a 1000× concentration in 100% DMSO. Immediately after addition of assay media to the cell plates, 50 nL of the appropriate test compound antagonist or agonist control curves were added to cell plates using a Cartesian Hummingbird. Compound curves were allowed to incubate at room temperature on cell plates for approximately 15 minutes before addition of a 4 nM r-PIA (Sigma P4532)/1 uM Forskolin (Sigma F3917) agonist challenge (5 uL volume). A control curve of r-PIA in 1 uM Forskolin, a DMSO/Media control, and a single dose of Forskolin were also included on each plate. After additions, cell plates were allowed to incubate at 37° C., 5% CO2, 90% Rh for 5.5-6 hours. After incubation, media was removed, and cell plates were washed 1×50 uL with DPBS w/o Ca & Mg (Mediatech 21-031-CV). Into dry wells, 20 uL of 1× Reporter Lysis Buffer (Promega E3971 (diluted in dH2O from 5× stock)) was added to each well and plates frozen at −20° C. overnight. For β-galactosidase enzyme colorimetric assay, plates were thawed out at room temperature and 20 μL 2× assay buffer (Promega) was added to each well. Color was allowed to develop at 37° C., 5% CO2, 90% Rh for 1-1.5 h or until reasonable signal appeared. The colorimetric reaction was stopped with the addition of 60 μL/well 1M sodium carbonate. Plates were counted at 405 nm on a SpectraMax Microplate Reader (Molecular Devices). Data was analyzed in Microsoft Excel and IC/EC50 curves were fit using a standardized macro.

[2] = molecular target: T2, human adenosine A2a receptor (Homo sapiens, UniProt P29274); assay: Adenosine A2a Receptor Functional Assay (A2AGAL2); type: cell-based; conditions: CHO-K1 cells overexpressing human A2a receptor, cAMP inducible beta-galactosidase reporter, 15 nM NECA agonist challenge; read-out: A2AGAL2_v4 Ki
T2 construct: expressed in transfected cells; host or cells: CHO-K1
Method: Adenosine A2a Receptor Functional Assay (A2AGAL2)
as §1, with “adenosine A2a” for “adenosine A1”, “a 15” for “a 4”, “nM NECA” for “nM r-PIA”, “(Sigma E2387)” for “(Sigma P4532)/1 uM Forskolin (Sigma F3917)”, “of NECA,” for “of r-PIA in 1 uM Forskolin,”, “Forskolin (Sigma F3917)” for “Forskolin”

[3] = molecular target: T3, human A2a adenosine receptor (Homo sapiens, UniProt P29274); assay: Ligand Binding Assay for Adenosine A2a Receptor (A2A-B); conditions: plasma membrane of HEK293 cells, radioligand [3H]CGS21680; read-out: A2A-B_v3 Ki
T3 construct: purchased PerkinElmer RB-HA2a; host or cells: HEK293 cell plasma membranes
Method: Ligand Binding Assay for Adenosine A2a Receptor (A2A-B)
Ligand binding assay of adenosine A2a receptor was performed using plasma membrane of HEK293 cells containing human A2a adenosine receptor (PerkinElmer, RB-HA2a) and radioligand [^3H]CGS21680 (PerkinElmer, NET1021). Assay was set up in 96-well polypropylene plate in total volume of 200 μL by sequentially adding 20 μL 1:20 diluted membrane, 130 μL assay buffer (50 mM Tris.HCl, pH7.4 10 mM MgCl2, 1 mM EDTA) containing [^3H] CGS21680, 50 μL diluted compound (4×) or vehicle control in assay buffer. Nonspecific binding was determined by […] NECA. Reaction was carried out at room temperature for 2 hours before filtering through 96-well GF/C filter plate pre-soaked in 50 mM Tris.HCl, pH7.4 containing 0.3% polyethylenimine. Plates were then washed 5 times with cold 50 mM Tris.HCl, pH7.4, dried and sealed at the bottom. Microscintillation fluid 30 μL was added to each well and the top sealed. Plates were counted on Packard Topcount for [^3H]. Data was analyzed in Microsoft Excel and GraphPad Prism programs. (Varani, K.; Gessi, S.; Dalpiaz, A.; Borea, P. A. British Journal of Pharmacology, 1996, 117, 1693)

T2 sequence (P29274 whole entry): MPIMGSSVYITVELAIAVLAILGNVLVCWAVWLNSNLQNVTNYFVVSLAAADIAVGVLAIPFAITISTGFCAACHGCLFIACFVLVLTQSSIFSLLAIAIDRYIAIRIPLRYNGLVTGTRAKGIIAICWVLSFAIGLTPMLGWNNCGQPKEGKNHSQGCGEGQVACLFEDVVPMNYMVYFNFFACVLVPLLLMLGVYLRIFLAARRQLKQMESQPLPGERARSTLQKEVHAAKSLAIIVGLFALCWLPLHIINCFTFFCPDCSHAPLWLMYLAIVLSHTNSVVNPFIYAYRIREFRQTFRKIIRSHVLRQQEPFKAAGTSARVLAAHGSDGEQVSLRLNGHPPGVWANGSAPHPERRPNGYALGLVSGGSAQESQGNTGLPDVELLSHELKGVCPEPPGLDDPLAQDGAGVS
T3 sequence (P29274 whole entry): as above

N#Cc1cccc(-c2nc(N)c3cc(CCN4CCOCC4)sc3n2)c1 [Example 5, 3-[4-Amino-6-(2-morpholin-4-yl-ethyl)-thieno[2,3-d]pyrimidin-2-yl]-benzonitrile]
Ki [1]: 0.594 µM
Ki [2]: 0.0401 µM

Nc1nc(-c2ncco2)nc2sc(CCN3CCOCC3)cc12 [Example 3, 6-(2-Morpholin-4-yl-ethyl)-2-oxazol-2-yl-thieno[2,3-d]pyrimidin-4-ylamine]
Ki [1]: 18.7 µM
Ki [2]: 0.238 µM

N#Cc1cccc(-c2nc(N)c3cc([C@H](O)CN4CCOCC4)sc3n2)c1 [Example 6, 3-[4-Amino-6-(1-hydroxy-2-morpholin-4-yl-ethyl)-thieno[2,3-d]pyrimidin-2-yl]-benzonitrile]
Ki [1]: 0.317 µM
Ki [2]: 0.0298 µM

CC(C)(C)c1ccc(-c2nc(N)c3cc(CCN4CCOCC4)sc3n2)s1 [Example 2, 2-(5-tert-Butyl-thiophen-2-yl)-6-(2-morpholin-4-yl-ethyl)-thieno[2,3-d]pyrimidin-4-ylamine]
Ki [1]: > 1.31 µM
Ki [2]: > 1.49 µM

C[C@@H]1CCC[C@H](C)N1C[C@@H](O)c1cc2c(N)nc(-c3cccc(C#N)c3)nc2s1 [Example 7, 3-{4-Amino-6-[2-(2,6-dimethyl-piperidin-1-yl)-1-hydroxy-ethyl]-thieno[2,3-d]pyrimidin-2-yl}-benzonitrile]
Ki [1]: 0.855 µM
Ki [2]: 0.195 µM

Cc1csc(-c2nc(N)c3cc(CCN4CCOCC4)sc3n2)n1 [Example 4, 2-(4-Methyl-thiazol-2-yl)-6-(2-morpholin-4-yl-ethyl)-thieno[2,3-d]pyrimidin-4-ylamine]
Ki [1]: 2.37 µM
Ki [2]: 0.19 µM

Cc1ccc(-c2nc(N)c3cc(CC4CCCCC4)sc3n2)o1 [Example 1, 6-Cyclohexylmethyl-2-(5-methyl-furan-2-yl)-thieno[2,3-d]pyrimidin-4-ylamine]
Ki [3]: 0.0342 µM
Ki [1]: 3.77 µM
Ki [2]: 0.0773 µM
